From EP4603105A1, “PHARMACEUTICAL COMPOSITION CONTAINING CYCLIC COMPOUND HAVING SELECTIVE KRAS INHIBITORY EFFECT AGAINST HRAS AND NRAS” (CHUGAI SEIYAKU KABUSHIKI KAISHA, priority 2022, dated 2024)
*1 amine or outer side, *2 acyl side, *3 side chain or, on linkers, in order; H or OH if unused. Where a SMILES comes first, the peptide text is derived from it. Bridges are numbered along the chain shown (N, C = ends). [ ]: non-standard residue; d: D form. The star is where a group is joined. hPhe(3-Cl-4-CF3) = N[C@@H](CCc1ccc(C(F)(F)F)c(Cl)c1)C(=O)O; X33 = O=C([C@H](Cc1ccc(C(F)(F)F)cc1)N(CC1CC1)[*:1])[*:2]; NPrPhe(4-CF3) = CCCN[C@@H](Cc1ccc(C(F)(F)F)cc1)C(=O)O; NMeGly(cPent) = CN[C@H](C(=O)O)C1CCCC1; Ac4c(3,3-Me2) = CC1(C)CC(N)(C(=O)O)C1; Hyp = O=C(O)[C@@H]1C[C@@H](O)CN1; NMeD = CN[C@@H](CC(=O)O)C(=O)O; NMeL = CN[C@@H](CC(C)C)C(=O)O; NEtAla = CCN[C@@H](C)C(=O)O; hPip = O=C(O)[C@@H]1CCCCCN1; Morpholide = C1CN(*)CCO1; Ac5c = NC1(C(=O)O)CCCC1; Aze = O=C(O)[C@@H]1CCN1; Sar = CNCC(=O)O; Propyl = CCC*

Key:
HRAS wild-type protein = HRAS wild-type protein (Homo sapiens, UniProt P01112); assay: Binding to HRAS by surface plasmon resonance (SPR), KD and KD ratio to KRAS
Procedure, shortened: (§1)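 Running buffer contained 10 µM GDP and 10 mM MgCl2 to keep RAS in the GDP state, with 4% DMSO at pH 7.4. Compounds were flowed at 100 µL/min in 75 s steps of rising concentration over captured biotin-Avi RAS at 30°C. Sensorgrams were fitted 1:1 for KD.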

[1] = target: GDP-bound NRAS wild-type protein (Homo sapiens, UniProt P01111); assay: Binding to NRAS by surface plasmon resonance (SPR), KD and KD ratio to KRAS
Procedure, shortened: as §1

[2] = test system: human lung cancer strain NCI-H441; format: cell-based
Procedure, shortened: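 Step one: dispense the test compound in serial DMSO dilutions. Step three: add the reagent and measure […].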

[3] = ratio of KD for HRAS wild-type protein to KD for KRAS
[4] = ratio of KD for GDP-bound NRAS wild-type protein to KD for KRAS
[5] = ratio of the KD value with respect to HRAS wild-type protein to the KD value with respect to KRAS
[6] = ratio of the KD value with respect to GDP-bound NRAS wild-type protein to the KD value with respect to KRAS
[7] = ratio of KD value for HRAS wild-type protein to KD value for KRAS (SPR)
[8] = ratio of KD value for GDP-bound NRAS wild-type protein to KD value for KRAS (SPR)

Sequence of HRAS wild-type protein (P01112 whole entry): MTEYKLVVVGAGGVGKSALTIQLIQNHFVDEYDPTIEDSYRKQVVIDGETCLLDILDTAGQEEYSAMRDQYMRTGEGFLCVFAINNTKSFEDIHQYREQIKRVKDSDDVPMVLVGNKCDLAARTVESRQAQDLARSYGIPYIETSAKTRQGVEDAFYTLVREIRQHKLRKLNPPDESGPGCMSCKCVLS
Sequence of GDP-bound NRAS wild-type protein (P01111 whole entry): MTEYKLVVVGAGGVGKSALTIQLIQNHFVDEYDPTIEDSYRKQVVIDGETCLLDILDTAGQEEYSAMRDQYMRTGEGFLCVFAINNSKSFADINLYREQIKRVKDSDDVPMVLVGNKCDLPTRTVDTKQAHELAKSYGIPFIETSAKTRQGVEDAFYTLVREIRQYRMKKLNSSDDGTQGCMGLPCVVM

| IC50 [2] | SMILES | HRAS /KRAS (HRAS wild-type protein; [3]) | NRAS /KRAS [1, 4] | HRAS /KRAS (HRAS wild-type protein; [5]) | NRAS /KRAS [1, 6] | HRAS /KRAS (HRAS wild-type protein; [7]) | NRAS /KRAS [1, 8] |
| --- | --- | --- | --- | --- | --- | --- | --- |
| 0.012 µM | CC[C@H](C)[C@@H]1NC(=O)[C@H](CC(C)C)N(C)C(=O)C[C@@H](C(=O)N2CCOCC2)N(C)C(=O)[C@H](C2CCCC2)N(C)C(=O)C2(CCCC2)NC(=O)[C@@H]2CCCN2C(=O)[C@H](CCc2ccc(C(F)(F)F)c(Cl)c2)NC(=O)CN(C)C(=O)[C@H](Cc2ccc(C(F)(F)F)cc2)N(CC2CC2)C(=O)CN(C)C(=O)CN(C)C1=O [PP0122] ([NMeL]I[Sar][Sar][X33][Sar][hPhe(3-Cl-4-CF3)]P[Ac5c][NMeGly(cPent)][NMeD]-Morpholide; lactam N-11) | C (A compound having a KD ratio of 0.1 or more and less than 3 is denoted as C) | C (A compound having a KD ratio of 0.1 or more and less than 3 is denoted as C) | – | – | – | – |
| 0.0045 µM | CCO[C@@H]1C[C@H]2C(=O)NC3(CCC3)C(=O)N(C)[C@@H](C3CCCC3)C(=O)N(C)[C@H](C(=O)N3CCOCC3)CC(=O)N(C)[C@@H](CC3CCCC3)C(=O)N[C@@H]([C@@H](C)CC)C(=O)N(C)CC(=O)N(C)[C@H]3CCCCN(C3=O)[C@@H](Cc3ccc(C(F)(F)F)cc3)C(=O)N(C)CC(=O)N[C@@H](CCc3cc(F)c(C(F)(F)F)c(F)c3)C(=O)N2C1 [PP0715] | – | – | B (a compound having 3 or more and less than 10 is denoted as B) | C (A compound having a KD ratio of 0.1 or more and less than 3 is denoted as C) | – | – |
| 0.0543 µM | CC[C@H](C)[C@@H]1NC(=O)[C@H](CC)N(C)C(=O)C[C@@H](C(=O)N2CCOCC2)N(C)C(=O)[C@H](C2CCCC2)N(C)C(=O)C2(CCCC2)NC(=O)[C@@H]2CCCN2C(=O)[C@H](CCc2cc(F)c(C(F)(F)F)c(F)c2)NC(=O)CN(C)C(=O)[C@H](Cc2ccc(C(F)(F)F)cc2)N2CCCCC[C@@H](C2=O)N(C)C(=O)CN(C)C1=O [PP0488] | – | – | B (a compound having 3 or more and less than 10 is denoted as B) | A (a compound having 10 or more and less than 20 is denoted as A) | – | – |
| 0.0786 µM | CCO[C@@H]1C[C@H]2C(=O)NC3(CCC3)C(=O)N(C)[C@@H](C3CCCC3)C(=O)N(C)[C@H](C(C)C)CC(=O)N(C)[C@@H](CC)C(=O)N[C@@H]([C@@H](C)CC)C(=O)N(C)CC(=O)N(C)[C@H]3C/C=C\CCN(C3=O)[C@@H](CC3CCCCC3)C(=O)N(C)CC(=O)N[C@@H](CCc3cc(F)c(C(F)(F)F)c(F)c3)C(=O)N2C1 [PP1601] | – | – | – | – | A (a compound having 10 or more and less than 20 is denoted as A) | B (a compound having 3 or more and less than 10 is denoted as B) |
| 0.0025 µM | CCCN(C)C(=O)[C@@H]1CC(=O)N(C)[C@@H](CC)C(=O)N[C@@H]([C@@H](C)CC)C(=O)N(C)CC(=O)N(C)[C@H]2C/C=C\CCN(C2=O)[C@@H](Cc2ccc(C(F)(F)F)cc2)C(=O)N(C)CC(=O)N[C@@H](CCc2cc(F)c(C(F)(F)F)c(F)c2)C(=O)N2C[C@H](OCC)C[C@H]2C(=O)NC2(CCC2)C(=O)N(C)[C@@H](C2CCCC2)C(=O)N1C [PP1699] | – | – | – | – | A (a compound having 10 or more and less than 20 is denoted as A) | A (a compound having 10 or more and less than 20 is denoted as A) |

The remaining lines, values behind:

| SMILES | IC50 [2] | HRAS /KRAS (HRAS wild-type protein; [3]) | NRAS /KRAS [1, 4] | HRAS /KRAS (HRAS wild-type protein; [5]) | NRAS /KRAS [1, 6] | HRAS /KRAS (HRAS wild-type protein; [7]) | NRAS /KRAS [1, 8] |
| --- | --- | --- | --- | --- | --- | --- | --- |
| CCC[C@H]1C(=O)N[C@@H]([C@@H](C)CC)C(=O)N(C)CC(=O)N(C)[C@H]2C/C=C\CCN(C2=O)[C@@H](Cc2ccc(C)cc2)C(=O)N(C)CC(=O)N[C@@H](CCc2ccc(C(F)(F)F)c(Cl)c2)C(=O)N2C[C@H](OCC)C[C@H]2C(=O)NC2(CC(C)(C)C2)C(=O)N(C)[C@@H](CC(C)(C)C)C(=O)N(C)[C@H](C(=O)N(C)C)CC(=O)N1C [PP2230] | 0.007 µM | – | – | A (a compound having 10 or more and less than 20 is denoted as A) | A (a compound having 10 or more and less than 20 is denoted as A) | – | – |
| CCCN1C(=O)[C@@H]2CCN2C(=O)CN(C)C(=O)[C@H]([C@@H](C)CC)NC(=O)[C@H](CC(C)C)N(C)C(=O)C[C@@H](C(=O)N2CCOCC2)NC(=O)[C@H](C2CCCC2)N(C)C(=O)C2(CCCC2)NC(=O)[C@@H]2C[C@@H](OCC)CN2C(=O)[C@H](CCc2ccc(C(F)(F)F)c(Cl)c2)NC(=O)CN(C)C(=O)[C@@H]1Cc1ccc(C(F)(F)F)cc1 [PP0353] ([NMeL]I[Sar][Aze][NPrPhe(4-CF3)][Sar][hPhe(3-Cl-4-CF3)][Hyp](Et)[Ac5c][NMeGly(cPent)]D-Morpholide; lactam N-11) | 0.0467 µM | B (a compound having 3 or more and less than 10 is denoted as B) | C (A compound having a KD ratio of 0.1 or more and less than 3 is denoted as C) | – | – | – | – |
| C=CCN1CC(=O)N(C)[C@H]2C/C=C\CCN(C2=O)[C@@H](Cc2ccc(C)cc2)C(=O)N(C)CC(=O)N[C@@H](CCc2cc(F)c(C(F)(F)F)c(F)c2)C(=O)N2C[C@H](OCC)C[C@H]2C(=O)NC2(CC(C)(C)C2)C(=O)N(C)[C@@H](C2CCCC2)C(=O)N(C)[C@H](C(=O)N(C)C)CC(=O)N(C)[C@@H](CCC)C(=O)N[C@@H]([C@@H](C)CC)C1=O [PP2094] | 0.0054 µM | – | – | A (a compound having 10 or more and less than 20 is denoted as A) | A (a compound having 10 or more and less than 20 is denoted as A) | – | – |
| CCCN(C)C(=O)[C@@H]1CC(=O)N(C)[C@@H](CC(F)F)C(=O)N[C@@H]([C@@H](C)CC)C(=O)N(C)CC(=O)N(C)[C@H]2C/C=C\CCN(C2=O)[C@@H](Cc2ccc(C(F)(F)F)cc2)C(=O)N(C)CC(=O)N[C@@H](CCc2cc(F)c(C(F)(F)F)c(F)c2)C(=O)N2C[C@H](OCC)C[C@H]2C(=O)NC2(CC(F)(F)C2)C(=O)N(C)[C@@H](C2CCCC2)C(=O)N1C [PP1733] | 0.0038 µM | – | – | – | – | A (a compound having 10 or more and less than 20 is denoted as A) | A (a compound having 10 or more and less than 20 is denoted as A) |
| CCCN1C(=O)CN(C)C(=O)CN(C)C(=O)[C@H]([C@@H](C)CC)NC(=O)[C@@H]2CCCCCN2C(=O)C[C@@H](C(=O)N2CCOCC2)N(C)C(=O)[C@H](C2CCCC2)N(C)C(=O)C2(CCCC2)NC(=O)[C@@H]2CCCN2C(=O)[C@H](CCc2ccc(C(F)(F)F)c(Cl)c2)NC(=O)CN(C)C(=O)[C@@H]1Cc1ccc(C(F)(F)F)cc1 [PP0247] ([hPip]I[Sar][Sar][NPrPhe(4-CF3)][Sar][hPhe(3-Cl-4-CF3)]P[Ac5c][NMeGly(cPent)][NMeD]-Morpholide; lactam N-11) | 0.0413 µM | C (A compound having a KD ratio of 0.1 or more and less than 3 is denoted as C) | B (a compound having 3 or more and less than 10 is denoted as B) | – | – | – | – |
| CCCO[C@H](C)[C@@H]1NC(=O)[C@H](CC(C)C)N(C)C(=O)C[C@@H](C(=O)N2CCOCC2)N(C)C(=O)[C@H](C2CCCC2)N(C)C(=O)C2(CC(C)(C)C2)NC(=O)[C@@H]2CCCN2C(=O)[C@H](CCc2ccc(C(F)(F)F)c(Cl)c2)NC(=O)CN(C)C(=O)[C@H](Cc2ccc(C(F)(F)F)cc2)N(CCC)C(=O)CN(C)C(=O)CN(C)C1=O [PP1965] ([NMeL]T(Propyl)[Sar][Sar][NPrPhe(4-CF3)][Sar][hPhe(3-Cl-4-CF3)]P[Ac4c(3,3-Me2)][NMeGly(cPent)][NMeD]-Morpholide; lactam N-11) | 0.0174 µM | – | – | B (a compound having 3 or more and less than 10 is denoted as B) | B (a compound having 3 or more and less than 10 is denoted as B) | – | – |
| CCCN1C(=O)[C@@H]2CCN2C(=O)[C@H](C)N(CC)C(=O)[C@H]([C@@H](C)CC)NC(=O)[C@H](CC(C)C)N(C)C(=O)C[C@@H](C(=O)N2CCOCC2)N(C)C(=O)[C@H](C2CCCC2)N(C)C(=O)C2(CCCC2)NC(=O)[C@@H]2CCCN2C(=O)[C@H](CCc2ccc(C(F)(F)F)c(Cl)c2)NC(=O)CN(C)C(=O)[C@@H]1Cc1ccc(C(F)(F)F)cc1 [PP0152] ([NMeL]I[NEtAla][Aze][NPrPhe(4-CF3)][Sar][hPhe(3-Cl-4-CF3)]P[Ac5c][NMeGly(cPent)][NMeD]-Morpholide; lactam N-11) | 0.0379 µM | B (a compound having 3 or more and less than 10 is denoted as B) | C (A compound having a KD ratio of 0.1 or more and less than 3 is denoted as C) | – | – | – | – |
| CCO[C@@H]1C[C@H]2C(=O)NC3(CC(C)(C)C3)C(=O)N(C)[C@@H](C3CCCC3)C(=O)N(C)[C@H](C(=O)N(C)CC)CC(=O)N(C)[C@@H](COC)C(=O)N[C@@H]([C@@H](C)CC)C(=O)N(C)CC(=O)N(C)[C@H]3C/C=C\CCN(C3=O)[C@@H](Cc3ccc(C(F)(F)F)cc3)C(=O)N(C)CC(=O)N[C@@H](CCc3ccc(Cl)c(Cl)c3)C(=O)N2C1 [PP2835] | 0.013 µM | A (a compound having 10 or more and less than 20 is denoted as A) | A (a compound having 10 or more and less than 20 is denoted as A) | – | – | – | – |
| CCO[C@@H]1C[C@H]2C(=O)NC3(CCCC3)C(=O)N(C)[C@@H](C3CCCC3)C(=O)N(C)[C@H](C(=O)N(C)C)CC(=O)N(C)[C@@H](CC(C)C)C(=O)N[C@@H]([C@@H](C)CC)C(=O)N(C)CC(=O)N(C)[C@H]3C/C=C\CCN(C3=O)[C@@H](Cc3ccc(C(F)(F)F)cc3)C(=O)N(C)CC(=O)N[C@@H](CCc3ccc(Cl)c(Cl)c3)C(=O)N2C1 [PP2837] | 0.0128 µM | A (a compound having 10 or more and less than 20 is denoted as A) | AA (a compound having 20 or more is denoted as AA) | – | – | – | – |
